# In US10702571B2, “Materials for cathepsin B enhancement and methods of use” (The University of North Carolina at Pembroke, priority 2015, dated 2020):
# Where a SMILES comes first, the peptide text is derived from it. The star is where a group is joined. Cbz = O=C(OCc1ccccc1)*
# Columns and labels:
# [1] = tested on: 30-kDa active form of cathepsin B (CatB-30); test: Hippocampal slice cultures treated for two days, immunoblot for active cathepsin B; assay type: cell-based, rodent; conditions: for increase in CatB-30 by flavonol alone: 5 μM flavonol alone for 2 days; for increase in cathepsin B (CatB-30): vs non-treated slices, statistically significant; for effect of the cathepsin B positive modulator PADK in combination with flavonol (summary in words) / levels of cathepsin B (summary in words): summary in the discussion
# Method: FIG. 1. Cathepsin B positive modulation by flavonols—members of the flavonoid class of polyphenolic compounds. Flavonols of quercetin (Q), fisetin (F), and myricetin (M) were applied daily to rodent hippocampal slice cultures. After two (2) days, non-treated (NT) and treated slices were harvested, homogenates were prepared, and equal protein aliquots were assessed by immunoblot to label the 30-kDa active form of cathepsin B (CatB-30). […] FIG. 2. Cathepsin B positive modulation by Z-Phe-Pro-OH. The compound Z-Phe-Pro-OH was applied to rodent hippocampal slice cultures for two (2) days. […] FIG. 3. Quercetin enhances the effect of the cathepsin B positive modulator Z-Phe-Ala-diazomethylketone (PADK). Quercetin (Q) at 5 μM was added to the daily PADK treatments of rodent hippocampal slice cultures. After two (2) days, non-treated (NT) and treated slices were harvested, homogenates were prepared, and equal protein aliquots were assessed by immunoblot to label the active form of cathepsin B (CatB-30). Paired, two-tailed t-test among distinct immunoblots found a statistically significant enhancement of the PADK effect by quercetin (p=0.0167; pairing was effective: p=0.0014). An enhancement of 60-70% occurred, whereas 5 μM quercetin alone for 2 days caused only a 21% increase in CatB-30. FIG. 4. Fisetin and myricetin enhance the cathepsin B positive modulation produced by 10 μM Z-Phe-Ala-diazomethylketone (PADK). Fisetin at 5 μM (top graph) or myricetin at 5 μM (bottom graph) were added to the two daily PADK treatments of rodent hippocampal slice cultures. The non-treated (NT) and treated slices were harvested, homogenates were prepared, and equal protein aliquots were assessed by immunoblot to label the active form of cathepsin B (CatB-30). […] An enhancement of 95-140% was produced by fisetin, whereas 5 μM fisetin alone for two (2) days caused only a 40% increase in CatB-30. FIG. 5. Dose-dependent enhancement of the PADK effect on CatB by flavonols. Quercetin (Q), fisetin (F), and myricetin (M) at 5-10 μM were applied daily to rodent hippocampal slice cultures that were also treated with 3 μM PADK (top graph) or 10 μM PADK (bottom graph). After two (2) days, non-treated (NT) and treated slices were harvested, homogenates were prepared, and equal protein aliquots were assessed by immunoblot to label the 30-kDa active form of cathepsin B (CatB-30). […] The 10 μM PADK slices indicate that each flavonol at the lower concentration has an enhancing effect, but the effect is eliminated or reduced when the flavonol concentration is doubled. As described in FIG. 1, flavonols such as quercetin (Q), fisetin (F), and myricetin (M) were applied daily to rodent hippocampal slice cultures. After two (2) days, non-treated (NT) and treated slices were harvested, homogenates were prepared, and equal protein aliquots were assessed by immunoblot to label the 30-kDa active form of cathepsin B (CatB-30). As described in FIG. 2, the compound of Z-Phe-Pro-OH was applied to rodent hippocampal slice cultures for two (2) days. As described in FIG. 3, the flavonol of quercetin (Q) was added at 5 μM to the daily PADK treatments of rodent hippocampal slice cultures. After two (2) days, non-treated (NT) and treated slices were harvested, homogenates were prepared, and equal protein aliquots were assessed by immunoblot to label the active form of cathepsin B (CatB-30). As described in FIG. 4, the flavonols of fisetin at 5 μM (top graph of FIG. 4) or myricetin at 5 μM (bottom graph of FIG. 4) were added to the two daily PADK treatments of rodent hippocampal slice cultures. The non-treated (NT) and treated slices were harvested, homogenates were prepared, and equal protein aliquots were assessed by immunoblot to label the active form of cathepsin B (CatB-30). As described in FIG. 5, the flavonols of quercetin (Q), fisetin (F), and myricetin (M) at 5-10 μM were applied daily to rodent hippocampal slice cultures that were also treated with 3 μM PADK (top graph) or 10 μM PADK (bottom graph). […]
# [2] = tested on: synaptic marker GluR1; test: Oral dosing in peanut butter pellets to middle-aged mice, dissected hippocampi: synaptic marker GluR1; assay type: in vivo; conditions: oral twice daily for 11 days, hippocampus, vs control compound
# Method: (§1) Compounds in peanut butter pellets were administered to middle-aged mice orally twice daily for 11 days, then dissected hippocampi were compared to control mice that received the same oral dosing with control compound.
# [3] = tested on: CatB-30; test: Oral dosing in peanut butter pellets to middle-aged mice, dissected hippocampi: CatB-30; assay type: in vivo; conditions: oral twice daily for 11 days, hippocampus, vs control compound
# Method: as §1
# [4] = flavonol at 5 and 10 μM daily with 3 μM PADK, two days
Structure (SMILES),increase in CatB-30 by flavonol alone [1] [%],"enhancement of the PADK effect on CatB-30 ([1]; 5 μM quercetin added to the daily PADK treatments, two days)","increase in cathepsin B (CatB-30) ([1]; 5-20 μM quercetin applied daily, two days) [fold]","enhancement of the PADK effect on CatB-30 (in words) [1, 4]",effect of the cathepsin B positive modulator PADK in combination with flavonol (summary in words) [1],levels of cathepsin B (summary in words) [1],synaptic marker GluR1 [2],CatB-30 in female mice ([3]; female middle-aged mice),CatB-30 in male mice ([3]; male middle-aged mice),"enhancement of the PADK effect on CatB-30 (in words) ([1]; 5 μM myricetin added to two daily treatments with 10 μM PADK, one-tailed p=0.033)",enhancement of the PADK effect on CatB-30 ([1]; 5 μM fisetin added to two daily treatments with 10 μM PADK),"increase in cathepsin B (CatB-30) ([1]; 5-30 μM fisetin applied daily, two days) [fold]"
O=c1c(O)c(-c2ccc(O)c(O)c2)oc2cc(O)cc(O)c12 [quercetin],21,60-70%,1.96,both 5 and 10 μM quercetin enhanced the PADK effect,enhance the effect,increase levels of cathepsin B,enhanced synaptic marker GluR1,increased CatB-30 in female mice,increased CatB-30 in male mice,,,
O=c1c(O)c(-c2cc(O)c(O)c(O)c2)oc2cc(O)cc(O)c12 [myricetin],,,,no enhancing effect at either concentration,enhance the effect,increase levels of cathepsin B,,,,smaller enhancement,,
"O=C(N[C@@H](Cc1ccccc1)C(=O)N1CCC[C@H]1C(=O)O)OCc1ccccc1 [Z-Phe-Pro-OH, N-carbobenzoxy-L-phenylalanyl-L-proline] (Cbz-Phe-Pro-OH)",,,,,,increase levels of cathepsin B,,,,,,
O=c1c(O)c(-c2ccc(O)c(O)c2)oc2cc(O)ccc12 [fisetin],40,,,only the higher 10 μM concentration of fisetin enhanced the effect,enhance the effect,increase levels of cathepsin B,,,,,95-140%,1.65
